Data on two compounds can be found in ChEMBL document CHEMBL1155595, “Inhibition of T-lymphocyte proliferation by cucurbitacins from Picrorhiza scrophulariaeflora” (J Nat Prod, 2000).

A short description of series [1]: Inhibition of phytohemagglutininin A-induced T-cell proliferation in human peripheral blood lymphocytes after 4 days by MTT assay. It counts as functional, cell-based. To be noted: PBL, 96 h.
The nature of series [2]: Cytotoxicity against human peripheral blood lymphocytes at <60 uM after 4 days by CFDA/PI labeling assay. The conditions noted are these: pbl, 96 h.
Series [3] in a line: Cytotoxicity against human peripheral blood lymphocytes assessed as LDH release upto 50 uM after 24 hrs. To be noted: pbl. (In general: Release of lactate dehydrogenase indicates damage to the cell membrane.)

As a reminder, the IC50 is the concentration needed to halve the response being measured. Read a high IC50 as weaker potency. With `CC(C)(O)/C=C/C(=O)[C@@](C)(O)[C@H]1[C@H](O)C[C@@]2(C)[C@@H]3CC=C4[C@@H](C[C@H](O)[C@H](O)C4(C)C)[C@]3(C)CC[C@]12C` [DEACETYLPICRACIN], the IC50 in series [1] is 1000 nM. In addition, the Activity in series [2] is given as less than 10%; in series [3] it was “Non-toxic”.

In turn, `CC(=O)OC(C)(C)/C=C/C(=O)[C@@](C)(O)[C@H]1[C@H](O)C[C@@]2(C)[C@@H]3CC=C4[C@@H](C[C@H](O)[C@H](O)C4(C)C)[C@]3(C)CC[C@]12C` [PICRACIN] yielded an IC50 in series [1] of 1000 nM. Also, the Activity is listed as less than 10% in series [2] and “Non-toxic” in series [3].
